Test results published in patent publication US20110028509A1, “Sulfonamides” (MERCK SERONO SA, priority 2008, published 2011).

Columns and labels:
CXCR3 [1] = target: T1, CXCR3 (Homo sapiens, UniProt P49682); assay: CXCR3 Ca2+ mobilization (FLIPR), stable hCXCR3-CHO cell line, I-TAC stimulated; assay type: cell-based; design: host or cells: CHO cells stably expressing hCXCR3; conditions: hCXCR3-CHO cells, I-TAC 100 nM stimulated Ca2+ response; read-out: Ca-ITAC
T1 sequence (P49682 1-368): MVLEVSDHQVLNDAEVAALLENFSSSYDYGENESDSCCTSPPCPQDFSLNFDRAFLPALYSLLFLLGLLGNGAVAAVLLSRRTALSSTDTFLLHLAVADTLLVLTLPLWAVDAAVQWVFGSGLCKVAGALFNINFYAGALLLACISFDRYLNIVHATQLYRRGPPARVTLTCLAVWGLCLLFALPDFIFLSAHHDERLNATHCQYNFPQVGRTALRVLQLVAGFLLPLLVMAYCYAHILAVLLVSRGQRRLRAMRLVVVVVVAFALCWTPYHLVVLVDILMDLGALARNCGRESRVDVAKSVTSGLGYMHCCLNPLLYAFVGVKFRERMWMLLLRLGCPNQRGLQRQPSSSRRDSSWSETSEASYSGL
Procedure: Human chinese hamster ovary (CHO) cell line stably expressing hCXCR3 was purchased from Euroscreen (Belgium) and culture in HAM's F12 (Invitrogen) containing 10% heat inactivated fetal calf serum (Cancerra, Australia), 50 units ml−1 penicillin, 50 μml−1 streptomycin, (Invitrogen, USA) and 400 μg/ml geneticin (G418) (Calbiochem, San Diego), according to the manufacturer.
CXCR3Ca^2+ mobilization was measured using a stable hCXCR3—CHO cell line and a microtiter-plate based assay using FLIPR^TETRA™ (Molecular Devices). In more detail, cells were harvested and plated into black 384-well plates (Becton-Dickinson) at a density of 15 000 cells per well and grown in the incubator for 18 hours. On the next day the media was aspirated and replaced with the cell loading buffer (HBSS—(Invitrogen) based buffer containing calcium indicator and signal enhancer from a commercial Ca2+ assay kit (Becton Dickinson). The plates were incubated for 60 minutes in the incubator, the test compounds were added and the plates equilibrated for 20 minutes at room temperature.
Plates were placed into FLIPR and the CXCR3 agonist (I-TAC, 100 nM) stimulated fluorescence change was quantitated. The activity of CXCR3 antagonists was determined as percent of the CXCR3 ligand I-TAC in the absence of the test compounds (=100% activity).

CXCR3 [2] = target: T1, CXCR3; assay: Chemotaxis assay ITAC (CXCL11), L1.2-CXCR3 cells; assay type: cell-based; design: expressed in transfected cells; conditions: 1 nM CXCL11 (I-TAC), 4 hours
Procedure: Human CXCR3 cDNA was amplified by PCR from a human cells cDNA library (Clontech) and subcloned into pcDNA3.1 (Invitrogen). Murine pre-B L1.2 cells were transfected with hCXCR3-pcDNA3.1 and were grown at 37° C., 5% CO2 in RPMI 1640 medium (Invitrogen, USA) supplemented with 5% heat inactivated fetal calf serum (Cancerra, Australia), 2 mM glutamine (Invitrogen), 50 units ml−1 penicillin, 50 μml−1 streptomycin. Stable transfectant clonal populations were selected using 800 μg/ml geneticin.
L1.2-CXCR3 cells were grown for 24 hours at 0.5×10^6 cells/ml in chemotaxis medium containing 5 mM butyric acid (Sigma). Compounds were on one hand mixed with 1 nM of CXCL11 (I-TAC) in phenol-red free RPMI 1640 (invitrogen) supplemented with 5% fetal bovine serum in presence of 1% DMSO. The CXCL11/compounds mixture was then added to lower chambers of chemotaxis 96 well microplates (neuroprobe), and framed filters ([…] pore size) were put on top of the lower chambers. Compounds were on the other hand mixed with L1.2 CXCR3 cells and incubated in chemotaxis medium at 1.5×10^6 cells/ml in presence of 1% DMSO at 37° C., 5% CO2 for 30 minutes. Cells/compounds mixture was then added on top of the frame filters and migration was performed at 37° C., 5% CO2 for 4 hours. The number of migrated cells in the bottom chamber was determined using the CyQuant GR dye (Molecular Probe), according to the manufacturer.

SMILES | IC50 (CXCR3 [1]) | IC50 (CXCR3 [2])
O=S(=O)(c1ccc(Cl)cc1)N(Cc1ccc(-c2nnn[nH]2)cc1)Cc1cccnc1 [Example 71, 4-chloro-N-(pyridin-3-ylmethyl)-N-[4-(2H-tetrazol-5yl)benzyl]benzene sulfonamide] | 16000 nM | 1540 nM
O=S(=O)(c1ccc(Cl)cc1)N(Cc1ccc(-c2nnn[nH]2)cc1)C1CCc2cc(Cl)ccc21 (stereo not drawn) [Example 179] | 350 nM | 8860 nM
CC(=O)N1C[C@@H]2[C@H](C1)[C@H]2NC(=O)c1ccc(CN(Cc2ccccc2)S(=O)(=O)c2ccc(Cl)cc2)cc1 [Example 118] | 3000 nM | 2610 nM
Cc1nc(CN(Cc2ccc(-c3nnn[nH]3)cc2)S(=O)(=O)c2ccc(Cl)cc2)cs1 [Example 68, 4-chloro-N-(2-methyl-thiazol-4-ylmethyl)-N-[4-(2H-tetrazol-5yl)benzyl]benzenesulfonamide] | 2000 nM | 130 nM
N#Cc1ccc(S(=O)(=O)N(Cc2ccc(C(=O)O)c(F)c2)Cc2ccccn2)cc1 [Example 67, 4-{[[(4-cyanophenyl)sulfonyl](pyridin-2-ylmethyl)amino]methyl}-2-fluorobenzoic acid] | 505 nM | 3060 nM
Cn1c(CNC(=O)c2ccc(CN(Cc3ccccn3)S(=O)(=O)c3ccc(C#N)cc3)cc2)nc2ccccc21 [Example 143] | 400 nM | 1000 nM
C[C@@H](c1ccc(NC(=O)C2(c3ccccc3)CC2)cc1)N(Cc1ccccn1)S(=O)(=O)c1ccc(C#N)cc1 [Example 167] | 250 nM | 1960 nM
Cc1nc(CN(Cc2ccc(-c3nnn[nH]3)cc2)S(=O)(=O)c2ccc(Cl)cc2)no1 [Example 73, 4-chloro-N-(5-methyl-1,2,4-oxadiazol-3-ylmethyl)-N-[4-(2H-tetrazol-5yl)benzyl]benzene sulfonamide] | 12000 nM | 3240 nM
N#Cc1ccc(S(=O)(=O)N(Cc2ccc(C(=O)NCCc3cccc(Cl)c3)cc2)Cc2cccnc2)cc1 [Example 110] | 750 nM | 390 nM
O=S(=O)(c1ccc(Cl)cc1)N(Cc1ccc(-c2nnn[nH]2)cc1)Cc1ccc2ccccc2n1 [Example 75] | 2000 nM | 2520 nM
O=S(=O)(c1cccc(-c2ccccc2)c1)N(Cc1ccc(-c2nnn[nH]2)cc1)Cc1ccccn1 [Example 166] | 1430 nM | 9050 nM
N#Cc1ccc(S(=O)(=O)N(Cc2ccc(C(=O)N[C@@H](Cc3ccccc3)C(N)=O)cc2)Cc2ccccn2)cc1 [Example 100] | 200 nM | 630 nM
CCOc1ccc(S(=O)(=O)N(Cc2ccc(C(=O)OC)c(OC)c2)Cc2ccccn2)cc1 [Example 188] | 10500 nM | 3800 nM
CC(=O)N1C[C@@H]2[C@H](C1)[C@H]2NC(=O)c1ccc(CN(Cc2ccccn2)S(=O)(=O)c2ccc(C#N)cc2)cc1 [Example 119] | 870 nM | 2140 nM
N#Cc1ccc(S(=O)(=O)N(Cc2ccc(C(=O)NCC(O)c3ccccc3)cc2)Cc2cccnc2)cc1 (stereo not drawn) [Example 109] | 750 nM | 130 nM
O=S(=O)(c1ccc(Cl)cc1)N(Cc1ccc(-c2nnn[nH]2)cc1)Cc1nccc2ccccc12 [Example 74, 4-chloro-N-(isoquinolin-1-ylmethyl)-N-[4-(2H-tetrazol-5yl)benzyl]benzene sulfonamide] | 2000 nM | 666 nM
N#Cc1cccc(CN(Cc2ccccn2)S(=O)(=O)c2ccc(Cl)cc2)c1 [Example 195] | 4200 nM | 6810 nM
CCOc1ccc(S(=O)(=O)N(Cc2ccc(C(=O)N[C@H]3[C@@H]4CN(C(C)=O)C[C@@H]43)cc2)Cc2ccccn2)cc1 [Example 107] | 5500 nM | 2070 nM
O=S(=O)(c1ccc(Cl)cc1)N(Cc1ccccc1)Cc1ccc(-c2nnn[nH]2)cc1 [Example 121] | 3000 nM | 3890 nM
N#Cc1ccc(S(=O)(=O)N(Cc2ccc(C(=O)NC(CO)C(O)c3ccccc3)cc2)Cc2cccnc2)cc1 (stereo not drawn) [Example 114] | 2000 nM | 2500 nM
CCOc1ccc(S(=O)(=O)N(Cc2ccc(C(=O)N[C@H](CO)Cc3ccccc3)cc2)Cc2ccccn2)cc1 [Example 87] | 17000 nM | 760 nM
N#Cc1ccc(S(=O)(=O)N(Cc2ccc([N+](=O)[O-])cc2)Cc2ccccn2)cc1 [Example 158] | 1000 nM | 4800 nM

Further lines, results first:

IC50 (CXCR3 [1]) | IC50 (CXCR3 [2]) | SMILES
320 nM | 1300 nM | N#Cc1ccc(S(=O)(=O)N(Cc2ccc(C(=O)NC3(c4ccccc4)CC3)cc2)Cc2cccnc2)cc1 [Example 113]
700 nM | 10 nM | CC(=O)OC(C(=O)Nc1ccc(CN(Cc2ccccn2)S(=O)(=O)c2ccc(Cl)cc2)cc1)c1ccccc1 (stereo not drawn) [Example 169]
700 nM | 170 nM | N#Cc1ccc(S(=O)(=O)N(Cc2ccc(C(=O)NC3(c4ccc(Cl)cc4)CC3)cc2)Cc2ccccn2)cc1 [Example 126]
2000 nM | 280 nM | CCOc1ccc(S(=O)(=O)N(Cc2ccc(C(=O)NC3(c4ccccc4)CC3)c(OC)c2)Cc2ccccn2)cc1 [Example 189]
900 nM | 270 nM | COC(=O)c1ccc(CNC(=O)c2ccc(CN(Cc3ccccn3)S(=O)(=O)c3ccc(Cl)cc3)cc2)cc1 [Example 132]
300 nM | 30 nM | CC(=O)NC(C(=O)Nc1ccc(CN(Cc2ccccn2)S(=O)(=O)c2ccc(Cl)cc2)cc1)c1ccccc1 (stereo not drawn) [Example 185]
600 nM | 240 nM | O=C(NC1(c2cccc(Cl)c2)CC1)c1ccc(CN(Cc2ccccn2)S(=O)(=O)c2ccc(Cl)cc2)cc1 [Example 122]
400 nM | 350 nM | O=C(NC1(c2ccc(Cl)cc2)CC1)c1ccc(CN(Cc2ccccn2)S(=O)(=O)c2ccc(Cl)cc2)cc1 [Example 125]
400 nM | 82 nM | COC(=O)C(NC(=O)c1ccc(CN(Cc2ccccn2)S(=O)(=O)c2ccc(Cl)cc2)cc1)c1ccc(F)c(F)c1 (stereo not drawn) [Example 147]
100 nM | 60 nM | N#Cc1ccc(S(=O)(=O)N(Cc2ccc(C(=O)NCc3ccccc3)cc2)Cc2ccccn2)cc1 [Example 138]
100 nM | 73 nM | O=C(NC(C(=O)O)c1ccc(F)c(F)c1)c1ccc(CN(Cc2ccccn2)S(=O)(=O)c2ccc(Cl)cc2)cc1 (stereo not drawn) [Example 149, (4-{[(4-Chloro-benzenesulfonyl)-pyridin-2-ylmethyl-amino]-methyl}-benzoylamino)-(3,4-difluoro-phenyl)-acetic acid]
500 nM | 160 nM | CCOc1ccc(S(=O)(=O)N(Cc2ccc(C(=O)NC3(c4cccc(Cl)c4)CC3)cc2)Cc2ccccn2)cc1 [Example 124]
20 nM | 70 nM | CC(C)(C)OC(=O)N1C[C@@H]2[C@H](C1)[C@H]2NC(=O)c1ccc(CN(Cc2ccccn2)S(=O)(=O)c2ccc(Cl)cc2)cc1 [Example 105]
2000 nM | 400 nM | COC(=O)[C@@H](Cc1ccccc1)NC(=O)c1ccc(CN(Cc2ccccn2)S(=O)(=O)c2ccc(Cl)cc2)cc1 [Example 145]
900 nM | 750 nM | N#Cc1ccc(S(=O)(=O)N(Cc2ccc(C(=O)NCc3ccccn3)cc2)Cc2ccccn2)cc1 [Example 135]
150 nM | 94 nM | NC(C(=O)Nc1ccc(CN(Cc2ccccn2)S(=O)(=O)c2ccc(Cl)cc2)cc1)c1ccccc1 (stereo not drawn) [Example 181]
500 nM | 380 nM | CCOc1ccc(S(=O)(=O)N(Cc2ccc(C(=O)NC3(c4ccc(Cl)cc4)CC3)cc2)Cc2ccccn2)cc1 [Example 127]
